Experimental data reported in patent US20110039763A1, “TARGETED ANTIMICROBIAL MOIETIES” (C3 JIAN, INC., priority 2009, published 2011).
Entries after “also recorded” stand apart in the source; their conditions may differ.

Test system: microorganisms
Experiment: Targeting peptide binding to target microorganisms (Tables 3, 10, 12)
Conditions: peptide binding in aqueous buffers that varied with peptide solubility; preferably 1x PBS
Source text: In certain embodiments, the targeting moiety comprises one or more targeting peptides that bind particular bacteria, fungi, and/or yeasts, and/or algae, and/or viruses and/or that bind particular groups of bacteria, and/or groups of fungi, and/or groups of yeasts, and/or groups of algae.
In certain embodiments the targeting peptides include peptides comprising or consisting of one or more of the amino acid sequences shown in Table 3 (SEQ ID NOs:13-1566). In various embodiments the peptides include peptides comprising or consisting of the retro, inverso, retro-inverso, and/or beta form of one or more of the amino acid sequences shown in Table 3. Also contemplated are circular permutations of these sequences as well as peptides comprising or consisting of the retro, inverso, retro-inverso, and/or beta form of such circular permutations.
In certain embodiments the targeting peptide can comprise one or more domains capable of binding, specifically binding, or preferentially binding to a microorganism, e.g., a target microbial organism (see, e.g., Table 3). In certain embodiment, the targeting peptide be identified via screening peptide libraries. For example, a phage display peptide library can be screened against a target microbial organism or a desired antigen or epitope thereof. Any peptide identified through such screening can be used as a targeting peptide for the target microbial organism.

Substance | Target(s) (microorganism bound by the targeting peptide)
1T-32 (VSFLAGWLCLGLAAWRLGNA; Peptide with targeting and/or antimicrobial activity) | S. mutans
1T-33 (VRTLTILVIFIFNYLKSISYKLKQPFENNLAQSMISI; Peptide with targeting and/or antimicrobial activity) | S. aureus; also recorded: S. epidermidis; also recorded: C. jeikeium; also recorded: C. xerosis; also recorded: C. striatum; also recorded: P. aeruginosa
1T-34 (AFWLNILLTLLGYIPGIVHAVYIIAKR; Peptide with targeting and/or antimicrobial activity) | S. aureus; also recorded: S. epidermidis; also recorded: C. jeikeium; also recorded: C. xerosis; also recorded: C. striatum; also recorded: P. aeruginosa
1T-35 (EICLTLVFPIRGSYSEAAKFPVPIHIVEDGTVELPK; Peptide with targeting and/or antimicrobial activity) | P. aeruginosa
1T-36 (VYRHLRFIDGKLVEIRLERK; Peptide with targeting and/or antimicrobial activity) | S. aureus; also recorded: S. epidermidis; also recorded: C. jeikeium; also recorded: C. xerosis; also recorded: C. striatum; also recorded: P. aeruginosa
1T-37 (YIVGALVILAVAGLIYSMLRKA; Peptide with targeting and/or antimicrobial activity) | S. mutans; also recorded: S. aereus; also recorded: S. epidermidis; also recorded: C. jeikeium; also recorded: C. xerosis; also recorded: C. striatum; also recorded: P. aeruginosa
1T-38 (VMFVLTRGRSPRPMIPAY; Peptide with targeting and/or antimicrobial activity) | S. mutans; also recorded: S. aereus; also recorded: S. epidermidis; also recorded: C. jeikeium; also recorded: C. xerosis; also recorded: C. striatum; also recorded: P. aeruginosa
1T-39 (FGFCVWMYQLLAGPPGPPA; Peptide with targeting and/or antimicrobial activity) | S. mutans; also recorded: P. aeruginosa
1T-40 (QRVSLWSEVEHEFR; Peptide with targeting and/or antimicrobial activity) | S. mutans; also recorded: P. aeruginosa
1T-41 (KRGSKIVIAIAVVLIVLAGVWVW; Peptide with targeting and/or antimicrobial activity) | S. mutans; also recorded: S. aureus; also recorded: S. epidermidis; also recorded: C. jeikeium; also recorded: C. striatum; also recorded: P. aeruginosa
1T-42 (TVLDWLSLALATGLFVYLLVALLRADRA; Peptide with targeting and/or antimicrobial activity) | S. aureus; also recorded: S. epidermidis; also recorded: C. xerosis; also recorded: C. striatum; also recorded: P. aeruginosa
1T-43 (DRCLSVLSWSPPKVSPLI; Peptide with targeting and/or antimicrobial activity) | C. jeikium; also recorded: P. aeruginosa
1T-44 (DPALADFAAGMRAQVRT; Peptide with targeting and/or antimicrobial activity) | S. mutans; also recorded: S. aureus; also recorded: S. epidermidis; also recorded: C. jeikeium; also recorded: C. striatum; also recorded: P. aeruginosa
1T-45 (WTKPSFTDLRLGFEVTLYFANR; Peptide with targeting and/or antimicrobial activity) | S. aureus; also recorded: S. epidermidis; also recorded: C. striatum; also recorded: P. aeruginosa
1T-46 (FSFKQRVMFRKEVERLR; Peptide with targeting and/or antimicrobial activity) | S. aureus; also recorded: S. epidermidis; also recorded: C. jeikeium; also recorded: C. xerosis; also recorded: C. striatum; also recorded: P. aeruginosa
1T-47 (VIKISVPGQVQMLIP; Peptide with targeting and/or antimicrobial activity) | S. mutans; also recorded: S. epidermidis; also recorded: P. aeruginosa
1T-48 (KLQVHHGRATHTLLLQPPLCAPGTIR; Peptide with targeting and/or antimicrobial activity) | S. aureus; also recorded: S. epidermidis; also recorded: C. jeikeium; also recorded: C. xerosis; also recorded: C. striatum; also recorded: P. aeruginosa
1T-49 (SLVRIHDQQPWVTRGAFIDAARTCS; Peptide with targeting and/or antimicrobial activity) | S. aureus; also recorded: S. epidermidis; also recorded: C. jeikeium; also recorded: P. aeruginosa
1T-50 (HSDEPIPNILFKSDSVH; Peptide with targeting and/or antimicrobial activity) | P. aeruginosa
1T-51 (GKPKRMPAEFIDGYGQALLAGA; Peptide with targeting and/or antimicrobial activity) | S. aureus; also recorded: P. aeruginosa
1T-52 (DEYPAKLPLSDKGATEPRRH; Peptide with targeting and/or antimicrobial activity) | S. aureus; also recorded: C. xerosis; also recorded: P. aeruginosa
1T-53 (SDILAEMFEKGELQTLVKDAAAKANA; Peptide with targeting and/or antimicrobial activity) | P. aeruginosa
1T-54 (RWVSCNPSWRIQ; Peptide with targeting and/or antimicrobial activity) | S. epidermidis; also recorded: C. xerosis; also recorded: C. striatum; also recorded: P. aeruginosa
1T-55 (NHKTLKEWKAKWGPEAVESWATLLG; Peptide with targeting and/or antimicrobial activity) | C. xerosis; also recorded: P. aeruginosa
1T-56 (LALIGAGIWMIRKG; Peptide with targeting and/or antimicrobial activity) | C. xerosis; also recorded: P. aeruginosa
1T-57 (RLEYRRLETQVEENPESGRRPMRG; Peptide with targeting and/or antimicrobial activity) | P. aeruginosa
1T-58 (CDDLHALERAGKLDALLSA; Peptide with targeting and/or antimicrobial activity) | P. aeruginosa
1T-59 (AVGNNLGKDNDSGHRGKKHRKHKHR; Peptide with targeting and/or antimicrobial activity) | S. aureus; also recorded: S. epidermidis; also recorded: P. aeruginosa
1T-60 (YLTSLGLDAAEQAQGLLTILKG; Peptide with targeting and/or antimicrobial activity) | S. aureus; also recorded: S. epidermidis; also recorded: C. jeikeium; also recorded: C. striatum; also recorded: P. aeruginosa
1T-61 (HATLLPAVREAISRQLLPALVPRG; Peptide with targeting and/or antimicrobial activity) | P. aeruginosa
